Measured values taken from patent publication US20180228728A1, “DOSAGE FORM FOR ADMINISTRATION OF OPIOID ANTAGONISTS” (priority 2017, published 2018).

Tested on: cultured human gingival tissues
Type: in vitro ADME
Conditions: as excipient in naloxone ODF
Description: Each ODF sample was die-cut into 1 inch (2.54 cm) diameter discs (area, 5.067 cm^2). To simulate the oral mucosa, an in vitro oral mucosa 3D model produced from primary human gingival keratinocytes was used (SkinAxis, LLC, North Brunswick, N.J., USA). Briefly, the cultured human gingival tissues were incubated in 6-well plates at 37° C. in a CO2 incubator. To prepare the receiver fluid, 0.3 mL of prewarmed phosphate buffered solution at pH 6.8 was pipetted into each well. Next, 0.5 mL of donor solution or the die-cut discs were placed onto the tissues. The plates were returned to the incubator for 15 minutes. The tissues were moved to the next wells and the receiver media was collected. This was repeated for the remaining time points. The receiver media was analyzed by HPLC in a 5 μm, 4.6×50 mm KINETEX C18 column (Phenomenex, Inc., Torrance, Calif., USA) using art standard protocols. Briefly, the mobile phase comprised 50 mM NH4Ac/Acetonitrile at 88/22. The flow rate was 1.0 mL/min and the column temperature was about 40° C. with a UV of 220 nm and a retention time of 1.8 min.

SMILES: CCCCCCCC/C=C\CCCCCCCCO [oleyl alcohol, Oleyl alcohol]
- effect of permeation enhancer on permeation percentage of the naloxone: increased the permeation percentage of the naloxone
